According to patent publication EP0871764B1, “SCREENING METHOD” (Novartis AG, priority 1995, dated 1997):

The compounds below were run against T1, RAC-PK PH domain (Homo sapiens, UniProt P31749) (assay: Quenching of the intrinsic Trp fluorescence of the PH domain by phospholipids and inositol phosphates). Conditions: calculated from reduction of 345nm fluorescence (excited at 290nm); 10mM Hepes/NaOH, pH 7.0, 10mM MgCl2, 25°C; read-out: Dissociation Constant.
T1 construct: pGEX-PH131 contains an in-frame fusion of amino acids 1-131 of human RAC-PKα with GST; GST (N, cleaved yes); made in house; host or cells: E. coli (JM109)
T1 sequence (P31749 1-131): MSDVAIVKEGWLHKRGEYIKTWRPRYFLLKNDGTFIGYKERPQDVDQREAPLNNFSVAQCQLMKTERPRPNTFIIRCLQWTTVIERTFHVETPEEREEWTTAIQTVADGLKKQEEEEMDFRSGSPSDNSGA
Assay type: binding
Method: Purified PH domain obtained according to Example 1 is incubated at a concentration of 1.4µM in 10mM Hepes/NaOH, pH 7.0, 10mM MgCl2, at 25°C.
Under the same conditions as Example 3, the RAC-PK PH domain is incubated in the presence of varying concentrations of phospholipids and inositol phosphates and fluorescence is measured. […]

| Kd | Compound |
| --- | --- |
| 8.4 µM | O=P(O)(O)OC1C(O)C(O)C(O)C(O)C1O (centres unmarked) [Ins (2) monophosphate] |
| 0.4 µM | Ptd-Ins (4,5)bisphosphate |
| 1.2 µM | O=P(O)(O)OC1C(O)C(O)C(OP(=O)(O)O)C(OP(=O)(O)O)C1O (centres unmarked) [Ins (1,4,5) trisphosphate] |

Continued, compound first:

| Compound | Kd |
| --- | --- |
| O=P(O)(O)OC1C(O)C(O)C(OP(=O)(O)O)C(O)C1O (centres unmarked) [Ins (1,4) bisphosphate] | 0.9 µM |
| O=P(O)(O)OC1C(O)C(O)C(O)C(O)C1O (centres unmarked) [Ins (1) monophosphate] | 7 µM |
